# Laboratory results as given in US20020155422A1, “Methods for analyzing dynamic changes in cellular informatics and uses therefor” (priority 2000, published 2002).
# Tested on: HL-60 cells
# Experiment: Gene expression profiling (Resgen microarray filters) of HL-60 cells stimulated to differentiate into neutrophils, time course
# Format: cell-based, human
# Conditions: for Normalized expression level of gene W95428 / Normalized expression level of gene W96205 / Normalized expression level of gene W96450 / Normalized expression level of gene W96463: HL-60 cells, retinoic acid induced switch, normalized to T = 0 level
# Text: Given the value of understanding the genetic basis of the switch between different hematopoietic stem cell lineages, a well-characterized human pluripotent precursor cell line—the HL 60 promyeloid leukemia cell line—provides a useful model system. HL 60 precursors cells can be induced to switch to granulocytes, monocytes, or macrophages based on alterations in experimental conditions. […] Established molecular methods (e.g., immunocytochemistry, FACS cell sorting, SDS-PAGE, Western blots, Northern blots, or other biochemical or molecular biological techniques) can be used to identify cells that have switched, between different phenotypes. These methods can be used to identify experimental conditions necessary to optimally acquire the baseline data for analysis according to methods of the invention, including information on the dose-response for the transition between different cell states and the time required for a stimulated cell to undergo the transition and reach a new steady state. Additional insight into the molecules involved in cell regulation may be gained by carrying out analysis of cells under various experimental conditions that induce forward and reverse transitions between the same two states by adding or removing a common stimulus as well as by analysis of convergent transition processes that involve switching to a common cell state using different stimuli and divergent transition process that involve switching from one state to two different attractor states using different perturbations. […] The latter would lead to a perturbation of the attractor state to various degrees with subsequent relaxation back to the same attractor along distinct trajectories.
# Cell state transitions that may be studied and characterized in the HL60 model system include: A) induction of a transition from HL60 precursor to a granulocyteby treatment with DMSO; B) induction of a reverse transition from granulocyte to HL60 by removing DMSO; C) induction of a transition from HL60 precursor to granulocyte using all-trans-retinoid acid; D) induction of a reverse transition from granulocytes to HL60 precursors by removing all-trans-retinoid acid; E) induction of a transition from HL60 precursors to a monocyte(s) by addition of NaButyrate; and F) induction of a transition from HL60 precursors to a macrophage(s) by addition of TPA. This approach was used to analyze two convergent processes of HL-60 cell transition from precursor to neutrophil states after stimulation with DMSO and retinoic acid (transitions A and C, respectively). In this experiment, only a relatively low number of genes (<300) were analyzed over 7 time points.
# HL-60 cells (1.5×10^6 cells/ml) were stimulated in parallel cultures to differentiate into neutrophils along two different but convergent paths by treatment with DMSO (S1 path) or retinoic acid (S2 path). At each time point, RNA was harvested from both cultures using RNeasy extraction kit (Qiagen) and subjected to gene expression profiling using Resgen microarray filters from Research Genetics/Invitrogen (the gene filter contains 5000 human cDNAs that were pre-spotted on a 5×7 cm nylon membrane and then hybridized with radioactively labeled cDNA made from total cellular RNA). […] Expression levels for each gene were normalized to the 0 time point level for that gene (untreated reference). Genes with expression levels below a 4 fold change relative to the 0 reference were excluded from the analysis. In this analysis, an inter-trajectory distance representation was used to compare different trajectories with the cell state space and to identify common paths in cell state transition processes. For each time point, a state vector of length 281 genes was defined for each of the two processes S1(t) and S2(t). […]
smiles,measurement,setting,value
CC1=C(/C=C/C(C)=C/C=C/C(C)=C/C(=O)O)C(C)(C)CCC1 [retinoic acid],Normalized expression level of gene W95428,2 hours,1.049
same,Normalized expression level of gene W96205,2 hours,0.9014
same,Normalized expression level of gene W96450,2 hours,0.8141
same,Normalized expression level of gene W96463,2 hours,0.9136
same,Normalized expression level of gene W95428,Day 2,1.003
same,Normalized expression level of gene W96205,Day 2,0.931
same,Normalized expression level of gene W96450,Day 2,0.8573
same,Normalized expression level of gene W96463,Day 2,0.9058
same,Normalized expression level of gene W95428,Day 3,0.9532
same,Normalized expression level of gene W96205,Day 3,0.9937
same,Normalized expression level of gene W96450,Day 3,0.6712
same,Normalized expression level of gene W96463,Day 3,0.8109
same,Normalized expression level of gene W95428,Day 4,0.9982
same,Normalized expression level of gene W96205,Day 4,0.9089
same,Normalized expression level of gene W96450,Day 4,0.8387
same,Normalized expression level of gene W96463,Day 4,0.8458
same,Normalized expression level of gene W95428,Day 5,0.9605
same,Normalized expression level of gene W96205,Day 5,0.9604
same,Normalized expression level of gene W96450,Day 5,1.17
same,Normalized expression level of gene W96463,Day 5,0.841
same,Normalized expression level of gene W95428,Day 7,0.954
same,Normalized expression level of gene W96205,Day 7,0.9732
same,Normalized expression level of gene W96450,Day 7,1.087
same,Normalized expression level of gene W96463,Day 7,0.8014
C[S+](C)[O-] [DMSO],"inter-trajectory distance DT(t) (squared Euclidean distance between state vectors S1(t), S2(t))","HL-60 cells 1.5×10^6 cells/ml, DMSO (S1 path) versus retinoic acid (S2 path), 281 genes, 7 time points, FIG. 7",converge on the same differentiation state
